# Paper PMC12856970 (Clinical Pharmacology in Drug Development, 2025)
# “Also recorded” adds a separate entry of the source. Like-named read-outs stand apart in the source and are kept apart here.
# Assays:
# [1] = Phase 1 DDI study: plasma PK of atorvastatin and its metabolites after atorvastatin alone or with steady-state asciminib (LC-MS/MS, non-compartmental); details: for AUCinf, Gmean (GCV%) / AUCinf, Mean (SD) / AUCinf, Median (min, max) / AUClast, Gmean (GCV%) / AUClast, Mean (SD) / AUClast, Median (min, max) / Cmax, Gmean (GCV%) / Cmax, Mean (SD) / Cmax, Median (min, max) / T1/2, Gmean (GCV%) / T1/2, Mean (SD) / T1/2, Median (min, max) / Tmax, Median (min, max): plasma; for AUCinf, Adjusted Gmean / AUClast, Adjusted Gmean / Cmax, Adjusted Gmean: linear mixed-effects model, back-transformed; for AUCinf Gmean ratio / AUClast Gmean ratio / Cmax Gmean ratio: atorvastatin + asciminib/atorvastatin; for Effect of asciminib on Cmax, AUClast and AUCinf (in words): atorvastatin + steady-state asciminib versus atorvastatin alone
# OATP = test system: OATP; set-up: method as in PMID 27317801; details: after a single dose of rifampicin, healthy participants; cited from earlier work
# OATP1B [2] = assay: Phase 1 DDI study: plasma CP-1 AUC0-24 as endogenous biomarker of OATP1B, without or with steady-state asciminib; details: for AUC0‐24, Adjusted Gmean: linear mixed-effects model
# [3] = set-up: method as in PMID 30580575; details: monotherapies; cited from earlier work
# CYP3A4 [4] = details: midazolam single dose co-administered with asciminib 40 mg BID at steady state vs alone; cited from earlier work
# CYP3A4 [5] = details: midazolam with asciminib 200 mg BID; cited from earlier work
# [6] = Phase 1 DDI study: asciminib plasma trough concentration (Ctrough); assay type: in vivo, human (healthy participants); details: asciminib 80 mg QD (i.e. on day 8)
# [7] = Phase 1 DDI study: safety and tolerability (AEs, ECG); assay type: in vivo, human (healthy participants); details: asciminib 80 mg QD multiple doses alone or with atorvastatin 20 mg
# [8] = cited from earlier work
# OATP1B1 = details: in vitro; cited from earlier work
# OATP1B3 = details: in vitro; cited from earlier work
# P‐gp = details: in vitro; cited from earlier work
# BCRP = details: in vitro; cited from earlier work
# OATP1B [9] = test system: OATP1B; set-up: method as in data on file; details: single asciminib dose of 200 mg; ref data on file; cited from earlier work
# [10] = atorvastatin 20 mg single dose + asciminib 80 mg QD at steady state (day 9)
# [11] = atorvastatin 20 mg single oral dose alone (day 1)
# [12] = atorvastatin + asciminib 80 mg QD steady state
# [13] = atorvastatin + asciminib at steady state
# [14] = steady state, 40 mg BID regimen
molecule,measurement,setting,value
"CC(C)c1c(C(=O)Nc2ccccc2O)c(-c2ccccc2)c(-c2ccc(F)cc2)n1CC[C@@H](O)C[C@@H](O)CC(=O)O [o‐Hydroxy‐atorvastatin, o‐hydroxy‐atorvastatin]","AUCinf, Gmean (GCV%)",[1]; [10],41.7 (34.9) ng x h/mL
same,"AUCinf, Mean (SD)",[1]; [10],44.1 (15.5) ng x h/mL
same,"AUCinf, Median (min, max)",[1]; [10],"42.8 (23.6, 81.7) ng x h/mL"
same,"AUClast, Gmean (GCV%)",[1]; [10],39.2 (36.8) ng x h/mL
same,"AUClast, Mean (SD)",[1]; [10],41.7 (15.4) ng x h/mL
same,"AUClast, Median (min, max)",[1]; [10],"40.1 (21.4, 79.2) ng x h/mL"
same,"Cmax, Gmean (GCV%)",[1]; [10],3.98 (45.4) ng/mL
same,"Cmax, Mean (SD)",[1]; [10],4.27 (2.11) ng/mL
same,"Cmax, Median (min, max)",[1]; [10],"3.88 (1.56, 11.3) ng/mL"
same,"T1/2, Gmean (GCV%)",[1]; [10],11.7 (28.4) h
same,"T1/2, Mean (SD)",[1]; [10],12.2 (3.43) h
same,"T1/2, Median (min, max)",[1]; [10],"12.2 (7.33, 21.2) h"
same,"Tmax, Median (min, max)",[1]; [10],"1.50 (0.50, 6.00) h"
same,"AUCinf, Gmean (GCV%)",[1]; [11],41.2 (34.7) ng x h/mL
same,"AUCinf, Mean (SD)",[1]; [11],43.4 (14.3) ng x h/mL
same,"AUCinf, Median (min, max)",[1]; [11],"44.1 (23.1, 77.7) ng x h/mL"
same,"AUClast, Gmean (GCV%)",[1]; [11],37.0 (42.2) ng x h/mL
same,"AUClast, Mean (SD)",[1]; [11],39.8 (15.0) ng x h/mL
same,"AUClast, Median (min, max)",[1]; [11],"41.6 (15.2, 75.8) ng x h/mL"
same,"Cmax, Gmean (GCV%)",[1]; [11],3.66 (56.9) ng/mL
same,"Cmax, Mean (SD)",[1]; [11],4.14 (1.98) ng/mL
same,"Cmax, Median (min, max)",[1]; [11],"4.04 (1.42, 8.11) ng/mL"
same,"T1/2, Gmean (GCV%)",[1]; [11],9.64 (28.0) h
same,"T1/2, Mean (SD)",[1]; [11],10.0 (2.95) h
same,"T1/2, Median (min, max)",[1]; [11],"9.67 (5.12, 19.9) h"
same,"Tmax, Median (min, max)",[1]; [11],"2.00 (0.50, 5.00) h"
same,"AUCinf, Adjusted Gmean",[1]; [12],41.7 ng x h/mL
same,"AUClast, Adjusted Gmean",[1]; [12],39.4 ng x h/mL
same,"Cmax, Adjusted Gmean",[1]; [12],3.95 ng/mL
same,Time post-dose at which mean Cmax was observed (mean concentration-time profile),[1]; [13],2 h
same,AUCinf Gmean ratio,[1],1.02
same,AUClast Gmean ratio,[1],1.07
same,Cmax Gmean ratio,[1],1.08
same,"Effect of asciminib on Cmax, AUClast and AUCinf (in words)",[1],did not affect; also recorded: comparable between treatments; also recorded: negligible
same,Time post-dose at which mean Cmax was observed (mean concentration-time profile),[1]; atorvastatin alone,2 h
same,"AUCinf, Adjusted Gmean",[1]; atorvastatin alone,40.7 ng x h/mL
same,"AUClast, Adjusted Gmean",[1]; atorvastatin alone,37.0 ng x h/mL
same,"Cmax, Adjusted Gmean",[1]; atorvastatin alone,3.66 ng/mL
coproporphyrin‐1 [CP‐1],Increase in Cmax,OATP,5.7 fold
same,AUC0‐24 Gmean ratio,OATP1B [2]; atorvastatin + asciminib/atorvastatin,1.02
same,Effect of asciminib on CP‐1 plasma concentrations (in words),OATP1B [2]; steady-state asciminib 80 mg QD,not affected; also recorded: remained unaffected
same,"AUC0‐24, Adjusted Gmean",OATP1B [2]; treatment 'Atorvastatin + asciminib' (steady-state asciminib),"12,500 pg x h/mL"
same,"AUC0‐24, Adjusted Gmean",OATP1B [2]; treatment 'Atorvastatin' (without asciminib),"12,300 pg x h/mL"
same,"AUC0‐24, Gmean (GCV%)","OATP1B [2]; with asciminib 80 mg QD, day 8, plasma","12,600 pg x h/mL"
same,"AUC0‐24, Gmean (GCV%)","OATP1B [2]; without asciminib, day 4, plasma","12,300 pg x h/mL"
CC[C@H](C)C(=O)O[C@H]1C[C@H](O)C=C2C=C[C@H](C)[C@H](CC[C@@H](O)C[C@@H](O)CC(=O)O)[C@H]21 [pravastatin],Rate of hospitalization due to rhabdomyolysis,[3],"0.44 per 10,000 patient‐years"
"CC(C)c1c(C(=O)Nc2ccc(O)cc2)c(-c2ccccc2)c(-c2ccc(F)cc2)n1CC[C@@H](O)C[C@@H](O)CC(=O)O [p‐Hydroxy‐atorvastatin, p‐hydroxy‐atorvastatin]","AUCinf, Gmean (GCV%)",[1]; [10],6.2 (95.2) ng x h/mL
same,"AUCinf, Mean (SD)",[1]; [10],7.67 (4.91) ng x h/mL
same,"AUCinf, Median (min, max)",[1]; [10],"6.63 (1.50, 15.7) ng x h/mL"
same,"AUClast, Gmean (GCV%)",[1]; [10],2.9 (87.7) ng x h/mL
same,"AUClast, Mean (SD)",[1]; [10],3.83 (3.28) ng x h/mL
same,"AUClast, Median (min, max)",[1]; [10],"2.99 (0.717, 13.6) ng x h/mL"
same,"Cmax, Gmean (GCV%)",[1]; [10],0.16 (48.0) ng/mL
same,"Cmax, Mean (SD)",[1]; [10],0.171 (0.0880) ng/mL
same,"Cmax, Median (min, max)",[1]; [10],"0.145 (0.0699, 0.425) ng/mL"
same,"T1/2, Gmean (GCV%)",[1]; [10],22.8 (58.5) h
same,"T1/2, Mean (SD)",[1]; [10],25.3 (10.9) h
same,"T1/2, Median (min, max)",[1]; [10],"26.0 (8.45, 40.9) h"
same,"Tmax, Median (min, max)",[1]; [10],"10.00 (1.00, 12.00) h"
same,"Tmax, Median (min, max)","[1]; atorvastatin 20 mg single dose + asciminib 80 mg QD at steady state (day 9), listed as p‐hydroxy‐atorvastatin",approximately 10 h
same,"AUCinf, Gmean (GCV%)",[1]; [11],7.4 (53.2) ng x h/mL
same,"AUCinf, Mean (SD)",[1]; [11],8.16 (4.48) ng x h/mL
same,"AUCinf, Median (min, max)",[1]; [11],"6.60 (4.86, 14.6) ng x h/mL"
same,"AUClast, Gmean (GCV%)",[1]; [11],3.1 (69.8) ng x h/mL
same,"AUClast, Mean (SD)",[1]; [11],3.73 (2.75) ng x h/mL
same,"AUClast, Median (min, max)",[1]; [11],"2.56 (0.964, 12.5) ng x h/mL"
same,"Cmax, Gmean (GCV%)",[1]; [11],0.17 (53.8) ng/mL
same,"Cmax, Mean (SD)",[1]; [11],0.189 (0.112) ng/mL
same,"Cmax, Median (min, max)",[1]; [11],"0.144 (0.0793, 0.468) ng/mL"
same,"T1/2, Gmean (GCV%)",[1]; [11],30.4 (24.6) h
same,"T1/2, Mean (SD)",[1]; [11],31.1 (7.50) h
same,"T1/2, Median (min, max)",[1]; [11],"30.4 (24.3, 39.3) h"
same,"Tmax, Median (min, max)",[1]; [11],"10.00 (1.50, 12.01) h"
same,"Tmax, Median (min, max)","[1]; atorvastatin 20 mg single oral dose alone (day 1), listed as p‐hydroxy‐atorvastatin",approximately 10 h
same,"AUCinf, Adjusted Gmean",[1]; [12],5.92 ng x h/mL
same,"AUClast, Adjusted Gmean",[1]; [12],2.89 ng x h/mL
same,"Cmax, Adjusted Gmean",[1]; [12],0.156 ng/mL
same,Time post-dose at which mean Cmax was observed (mean concentration-time profile),[1]; [13],10 h
same,AUCinf Gmean ratio,[1],0.74
same,AUClast Gmean ratio,[1],0.98
same,Cmax Gmean ratio,[1],0.98
same,"Effect of asciminib on Cmax, AUClast and AUCinf (in words)",[1],did not affect; also recorded: negligible
same,Time post-dose at which mean Cmax was observed (mean concentration-time profile),[1]; atorvastatin alone,10 h
same,"AUCinf, Adjusted Gmean",[1]; atorvastatin alone,8.04 ng x h/mL
same,"AUClast, Adjusted Gmean",[1]; atorvastatin alone,2.96 ng x h/mL
same,"Cmax, Adjusted Gmean",[1]; atorvastatin alone,0.160 ng/mL
Cc1ncc2n1-c1ccc(Cl)cc1C(c1ccccc1F)=NC2 [midazolam],Increase in AUCinf,CYP3A4 [4],28%
same,Increase in AUClast,CYP3A4 [4],27%
same,Increase in Cmax,CYP3A4 [4],11%
same,Increase in AUCinf (PBPK prediction),CYP3A4 [5],88%
same,Increase in Cmax (PBPK prediction),CYP3A4 [5],58%
"O=C(Nc1ccc(OC(F)(F)Cl)cc1)c1cnc(N2CC[C@@H](O)C2)c(-c2ccn[nH]2)c1 [asciminib, Asciminib]",Time of dosing until steady state was attained,[6],3 days
same,Tolerability (in words),[7],well tolerated
same,Time of dosing to reach steady-state levels,[8],≤ 3 days
same,"AUC0‐12, Gmean",[8]; [14],5262 ng x h/mL
same,"Cmax, Gmean",[8]; [14],793 ng/mL
same,"Cmax, Gmean","[8]; steady state, 80 mg QD regimen",1781 ng/mL
same,Inhibition of OATP1B1 (in words),OATP1B1,could inhibit; also recorded: can inhibit
same,Inhibition of OATP1B3 (in words),OATP1B3,could inhibit; also recorded: can inhibit
same,Inhibition of P‐gp (in words),P‐gp,could inhibit; also recorded: can inhibit
same,Inhibition of BCRP (in words),BCRP,could inhibit; also recorded: can inhibit
same,DDI effect on CP‐1 (in words),OATP1B [9],no DDI effect
CC(C)c1c(C(=O)Nc2ccccc2)c(-c2ccccc2)c(-c2ccc(F)cc2)n1CC[C@@H](O)C[C@@H](O)CC(=O)O [Atorvastatin],Rate of hospitalization due to rhabdomyolysis,[3],"0.44 per 10,000 patient‐years"
